For assay [1], the target named is T1, HCV NS3/4A protease complex, BMS strain (UniProt P27958, species not given/STRAIN_BMS).
T1 construct: said of H77 and J4L6S; fused on or other part: three-lysine solubilising tail at the end of NS4A (printed for the H77 and J4L6S constructs; probably the same for BMS)
The assay is described as follows: FRET peptide assay to monitor HCV NS3/4A proteolytic activity (BMS strain). The format is biochemical, Hepatitis C virus (genotype 1a). Conditions: Table 2, NS3/4A BMS strain. From the text:
HCV […] protease complexes, derived from the BMS strain, H77 strain or J4L6S strain, were generated, as described below. These purified recombinant proteins were generated for use in a homogeneous assay (see below) to provide an indication of how effective compounds of the present disclosure would be in inhibiting HCV NS3 proteolytic activity.
Serum from an HCV-infected patient was obtained from Dr. T. Wright, San Francisco Hospital. An engineered full-length cDNA (compliment deoxyribonucleic acid) template of the HCV genome (BMS strain) was constructed from DNA fragments obtained by reverse transcription-PCR (RT-PCR) of serum RNA (ribonucleic acid) and using primers selected on the basis of homology between other genotype 1a strains. From the determination of the entire genome sequence, a genotype 1a was assigned to the HCV isolate according to the classification of Simmonds et al. (See Simmonds, P. et al., J. Clin. Microbiol., 31(6), 1493-1503 (1993)). […] The infectious clones, H77 (1a genotype) and J4L6S (1b genotype) were obtained from R. Purcell (NIH) and the sequences are published in GENBANK® (AAB67036, see Yanagi, M. et al., Proc. Natl. Acad. Sci. U.S.A., 94(16):8738-8743 (1997); AF054247, see Yanagi, M. et al., Virology, 244(1):161-172 (1998)).
The H77 and J4L6S strains were used for production of recombinant NS3/4A protease complexes. DNA encoding the recombinant HCV NS3/4A protease complex (amino acids 1027 to 1711) for these strains were manipulated as described by P. Gallinari et al. (see Gallinari, P. et al, Biochemistry, 38(17):5620-5632 (1999)). Briefly, a three-lysine solubilizing tail was added at the 3′-end of the NS4A coding region. The cysteine in the P1 position of the NS4A-NS4B cleavage site (amino acid 1711) was changed to a glycine to avoid the proteolytic cleavage of the lysine tag. Furthermore, a cysteine to serine mutation was introduced by PCR at amino acid position 1454 to prevent the autolytic cleavage in the NS3 helicase domain. The variant DNA fragment was cloned in the pET21b bacterial expression vector (Novagen) and the NS3/4A complex was expressed in Escherichia. coli strain BL21 (DE3) (Invitrogen) following the protocol described by P. Gallinari et al. (see Gallinari, P. et al., J. Virol., 72(8):6758-6769 (1998)) with modifications. Briefly, the NS3/4A protease complex expression was induced with 0.5 millimolar (mM) Isopropyl β-D-1-thiogalactopyranoside (IPTG) for 22 hours (h) at 20° C. A typical fermentation (1 Liter (L)) yielded approximately 10 grams (g) of wet cell paste. The cells were resuspended in lysis buffer (10 mL/g) consisting of 25 mM N-(2-hydroxyethyl)piperazine-N′-(2-ethane sulfonic acid) (HEPES), pH 7.5, 20% glycerol, 500 mM sodium chloride (NaCl), 0.5% Triton X-100, 1 microgram/milliliter (“μg/mL”) lysozyme, 5 mM magnesium chloride (MgCl2), 1 μg/ml DnaseI, 5 mM β-mercaptoethanol (βME), protease inhibitor-ethylenediamine tetraacetic acid (EDTA) free (Roche), homogenized and incubated for 20 minutes (min) at 4° C. The homogenate was sonicated and clarified by ultra-centrifugation at 235000 g for 1 hour (h) at 4° C. Imidazole was added to the supernatant to a final concentration of 15 mM and the pH adjusted to 8.0. The crude protein extract was loaded on a Nickel-Nitrilotriacetic acid (Ni-NTA) column pre-equilibrated with buffer B (25 mM HEPES, pH 8.0, 20% glycerol, 500 mM NaCl, 0.5% Triton X-100, 15 mM imidazole, 5 mM βME). The sample was loaded at a flow rate of 1 mL/min. The column was washed with 15 column volumes of buffer C (same as buffer B except with 0.2% Triton X-100). The protein was eluted with 5 column volumes of buffer D (same as buffer C except with 200 mM Imidazole).
NS3/4A protease complex-containing fractions were pooled and loaded on a desalting column Superdex-S200 pre-equilibrated with buffer D (25 mM HEPES, pH 7.5, 20% glycerol, 300 mM NaCl, 0.2% Triton X-100, 10 mM βME). Sample was loaded at a flow rate of 1 mL/min. […]

The test system of assay [2] is HCV replicon in HUH-7 cells. The assay is described as follows: HCV replicon FRET assay. The format is cell-based, Hepatitis C virus (strain 1b). Conditions: Hepatitis C virus, Huh-7, Table 2, HCV replicon, replicon assay format not stated, read-out: EC50. From the text: An HCV replicon whole cell system was established as described by Lohmann, V. et al., Science, 285(5424):110-113 (1999). This system enabled us to evaluate the effects of our HCV Protease compounds on HCV RNA replication. Briefly, using the HCV strain 1b sequence described in the Lohmann paper (Accession number: AJ238799), an HCV cDNA was synthesized by Operon Technologies, Inc. (Alameda, Calif.), and the full-length replicon was then assembled in plasmid pGem9zf(+) (Promega, Madison, Wis.) using standard molecular biology techniques. The replicon consists of (i) the HCV 5′ UTR fused to the first 12 amino acids of the capsid protein, (ii) the neomycin phosphotransferase gene (neo), (iii) the IRES from encephalomyocarditis virus (EMCV), and (iv) HCV NS3 to NS5B genes and the HCV 3′ UTR. Plasmid DNAs were linearized with ScaI and RNA transcripts were synthesized in vitro using the T7 MegaScript transcription kit (Ambion, Austin, Tex.) according to manufacturer's directions. In vitro transcripts of the cDNA were transfected into the human hepatoma cell line, HUH-7. […] Resulting cell lines were characterized for positive and negative strand RNA production and protein production over time.
The HCV replicon FRET assay was developed to monitor the inhibitory effects of compounds described in the disclosure on HCV viral replication. HUH-7 cells, constitutively expressing the HCV replicon, were grown in Dulbecco's Modified Eagle Media (DMEM) (Gibco-BRL) containing 10% Fetal calf serum (FCS) (Sigma) and 1 mg/ml G418 (Gibco-BRL). Cells were seeded the night before (1.5×10^4 cells/well) in 96-well tissue-culture sterile plates. Compound and no compound controls were prepared in DMEM containing 4% FCS, 1:100 Penicillin/Streptomysin (Gibco-BRL), 1:100 L-glutamine and 5% DMSO in the dilution plate (0.5% DMSO final concentration in the assay). Compound/DMSO mixes were added to the cells and incubated for 4 days at 37° C. After 4 days, cells were first assessed for cytotoxicity using alamar Blue (Trek Diagnostic Systems) for a CC50 reading. The toxicity of compound (CC50) was determined by adding 1/10th volume of alamar Blue to the media incubating the cells. After 4 h, the fluorescence signal from each well was read, with an excitation wavelength at 530 nm and an emission wavelength of 580 nm, using the CYTOFLUOR® Series 4000 (Perspective Biosystems). Plates were then rinsed thoroughly with Phosphate-Buffered Saline (PBS) (3 times 150 μl). The cells were lysed with 25 μl of a lysis assay reagent containing an HCV protease substrate (5× cell Luciferase cell culture lysis reagent (PROMEGA® #E153A) diluted to 1× with distilled water, NaCl added to 150 mM final, the FRET peptide substrate (as described for the enzyme assay above) diluted to 10 μM final from a 2 mM stock in 100% DMSO. The plate was then placed into the CYTOFLUOR® 4000 instrument which had been set to 340 nm excitation/490 nm emission, automatic mode for 21 cycles and the plate read in a kinetic mode. EC50 determinations were carried out as described for the IC50 determinations.
(Replicon systems follow genome replication, usually without infectious particles.)

For nine molecules, IC50 and EC50 results are on record in US7964560B2, “Hepatitis C virus inhibitors” (Bristol-Myers Squibb Company, priority 2008, dated 2011).

SMILES strings stand for the structures. Read-outs that look alike come from different tables or passages of the source.

T1 sequence (P27958 1027-1657, change not shown, one chain of several): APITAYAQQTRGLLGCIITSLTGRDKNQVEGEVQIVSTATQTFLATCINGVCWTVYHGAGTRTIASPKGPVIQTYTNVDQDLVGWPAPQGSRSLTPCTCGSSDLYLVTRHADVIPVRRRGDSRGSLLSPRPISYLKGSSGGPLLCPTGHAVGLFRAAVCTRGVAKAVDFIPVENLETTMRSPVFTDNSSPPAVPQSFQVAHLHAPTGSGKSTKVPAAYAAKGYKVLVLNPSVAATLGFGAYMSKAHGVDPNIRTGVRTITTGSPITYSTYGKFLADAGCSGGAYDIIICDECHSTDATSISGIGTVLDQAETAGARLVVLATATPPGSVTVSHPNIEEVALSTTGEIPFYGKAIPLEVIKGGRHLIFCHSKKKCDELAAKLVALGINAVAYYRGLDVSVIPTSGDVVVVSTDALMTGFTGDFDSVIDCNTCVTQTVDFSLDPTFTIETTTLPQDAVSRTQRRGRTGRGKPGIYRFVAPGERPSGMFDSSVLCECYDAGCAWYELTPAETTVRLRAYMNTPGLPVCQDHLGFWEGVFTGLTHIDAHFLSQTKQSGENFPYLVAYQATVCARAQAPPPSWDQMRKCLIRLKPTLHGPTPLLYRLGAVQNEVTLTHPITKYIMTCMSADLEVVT

In general, IC50 refers to the point on the concentration scale where inhibition reaches its midpoint. The low end stands for greater potency in that assay, the high end for weaker potency in that assay. As a reminder, the EC50 is the midpoint of the concentration-response curve. `CCCCS[C@@]1(c2ccc(-c3ccccc3)cc2)C[C@@H](C(=O)N[C@]2(C(=O)NS(=O)(=O)C3CC3)C[C@H]2C2CC2)N(C(=O)[C@@H](NC(=O)OC(C)(C)C)C(C)(C)C)C1` [Example 5, tert-butyl (S)-1-((2S,4R)-4-(biphenyl-4-yl)-4-(butylthio)-2-((1S,2R)-2-(cyclopropylsulfonylcarbamoyl)bi(cyclopropan)-2-ylcarbamoyl)pyrrolidin-1-yl)-3,3-dimethyl-1-oxobutan-2-ylcarbamate] returned an IC50 in assay [1] (activity range) of 1 to 20 nM. The EC50 in assay [2] (activity range) is 6 to 100 nM.
`CCCCS[C@@]1(c2ccc(-c3ccccc3)cc2)C[C@@H](C(=O)N[C@]2(C(=O)NS(=O)(=O)C3CC3)C[C@H]2C(F)F)N(C(=O)[C@@H](NC(=O)OC(C)(C)C)C(C)(C)C)C1` [Example 6, tert-butyl (S)-1-((2S,4R)-4-(biphenyl-4-yl)-4-(butylthio)-2-((1R,2R)-1-(cyclopropylsulfonylcarbamoyl)-2-(difluoromethyl)cyclopropylcarbamoyl)pyrrolidin-1-yl)-3,3-dimethyl-1-oxobutan-2-ylcarbamate] displayed a 50% inhibitory concentration (IC50) in assay [1] (numeric values) of 2 nM. In addition, the EC50 in assay [2] (numeric values) was 18 to 36 nM.
`C=C[C@@H]1C[C@]1(NC(=O)[C@@H]1C[C@](c2ccc(-c3ccccc3)cc2)([S+]([O-])CCCC)CN1C(=O)[C@@H](NC(=O)OC(C)(C)C)C(C)(C)C)C(=O)NS(=O)(=O)C1CC1` (single isomer, unassigned) [Example 2] had an IC50 in assay [1] (activity range) of 1 to 20 nM. Also, in assay [2] (activity range), the EC50 was 6 to 100 nM.
On the same counts, the results for `C=CCS[C@@]1(c2ccc(-c3ccccc3)cc2)C[C@@H](C(=O)N[C@]2(C(=O)NS(=O)(=O)C3CC3)C[C@H]2C=C)N(C(=O)[C@@H](NC(=O)OC(C)(C)C)C(C)(C)C)C1` [Example 12, tert-butyl (S)-1-((2S,4R)-4-(allylthio)-4-(biphenyl-4-yl)-2-((1R,2S)-1-(cyclopropylsulfonylcarbamoyl)-2-vinylcyclopropylcarbamoyl)pyrrolidin-1-yl)-3,3-dimethyl-1-oxobutan-2-ylcarbamate] are 1 to 20 nM and 6 to 100 nM.
As for `C=C[C@@H]1C[C@]1(NC(=O)[C@@H]1C[C@](c2ccc(-c3ccccc3)cc2)(S(=O)(=O)CCCC)CN1C(=O)[C@@H](NC(=O)OC(C)(C)C)C(C)(C)C)C(=O)NS(=O)(=O)C1CC1` (single isomer, unassigned) [Example 3], in assay [1] (numeric values), the IC50 is 1 nM. Besides, in assay [2] (numeric values), the 50% effective concentration (EC50) was determined as 6.6 nM.
As for `C=C[C@@H]1C[C@]1(NC(=O)[C@@H]1C[C@@](SC(C)C)(c2ccc(-c3ccccc3)cc2)CN1C(=O)[C@@H](NC(=O)OC(C)(C)C)C(C)(C)C)C(=O)NS(=O)(=O)C1CC1` [Example 9, tert-butyl (S)-1-((2S,4R)-4-(biphenyl-4-yl)-2-((1R,2S)-1-(cyclopropylsulfonylcarbamoyl)-2-vinylcyclopropylcarbamoyl)-4-(isopropylthio)pyrrolidin-1-yl)-3,3-dimethyl-1-oxobutan-2-ylcarbamate], the IC50 in assay [1] (activity range) was 1 to 20 nM. In assay [2] (activity range), the 50% effective concentration (EC50) lay within 6 to 100 nM.
On the same counts, the results for `C=C[C@@H]1C[C@]1(NC(=O)[C@@H]1C[C@@](SC(C)C)(c2ccc(-c3ccccc3)cc2)CN1C(=O)[C@@H](NC(=O)OC1(C)CCCC1)C(C)(C)C)C(=O)NS(=O)(=O)C1CC1` [Example 11, 1-methylcyclopentyl (S)-1-((2S,4R)-4-(biphenyl-4-yl)-2-((1R,2S)-1-(cyclopropylsulfonylcarbamoyl)-2-vinylcyclopropylcarbamoyl)-4-(isopropylthio)pyrrolidin-1-yl)-3,3-dimethyl-1-oxobutan-2-ylcarbamate] are 1 to 20 nM and 6 to 100 nM.
In assay [1] (activity range), `C=C[C@@H]1C[C@]1(NC(=O)[C@@H]1C[C@@](SC(C)C)(c2ccc(-c3ccccc3)cc2)CN1C(=O)[C@@H](NC(=O)OC(C)(C)C(F)(F)F)C(C)(C)C)C(=O)NS(=O)(=O)C1CC1` [Example 10, 1,1,1-trifluoro-2-methylpropan-2-yl (S)-1-((2S,4R)-4-(biphenyl-4-yl)-2-((1R,2S)-1-(cyclopropylsulfonylcarbamoyl)-2-vinylcyclopropylcarbamoyl)-4-(isopropylthio)pyrrolidin-1-yl)-3,3-dimethyl-1-oxobutan-2-ylcarbamate] returned an IC50 of 1 to 20 nM. Further, the EC50 in assay [2] (activity range) lay in the range of 6 to 100 nM.
`C=C[C@@H]1C[C@]1(NC(=O)[C@@H]1C[C@@](SC)(c2ccc(-c3ccccc3)cc2)CN1C(=O)[C@@H](NC(=O)OC(C)(C)C)C(C)(C)C)C(=O)NS(=O)(=O)C1CC1` [Example 8, tert-butyl (S)-1-((2S,4R)-4-(biphenyl-4-yl)-2-((1R,2S)-1-(cyclopropylsulfonylcarbamoyl)-2-vinylcyclopropylcarbamoyl)-4-(methylthio)pyrrolidin-1-yl)-3,3-dimethyl-1-oxobutan-2-ylcarbamate] gave an IC50 in assay [1] (activity range) of 1 to 20 nM. The EC50 in assay [2] (activity range) was 6 to 100 nM.
